Test results taken from the Bradley open melting point set (2014).
Values joined by “and” are separate entries in the source; they are usually repeats but may differ in a detail not shown here. Identical values can stand only once. Counter-ions that a name gives are not always drawn.

**Q.** For `C[Si](C)(C)Cl` [Chloro(trimethyl)silane], which melting point is on record?
**A.** Its melting point is -58 °C.

**Q.** For `Clc1ccccc1` [Chlorobenzene], which melting point is on record?
**A.** The melting point was -45 °C.

**Q.** Which melting point does the source give for `O=C(O)c1cc(=O)[nH]c(=O)[nH]1` [Cholergol] here?
**A.** The melting point was 345 °C.

**Q.** With `CC(C)CCC[C@@H](C)[C@H]1CC[C@H]2[C@@H]3CC=C4C[C@@H](O)CC[C@]4(C)[C@H]3CC[C@]12C` [Cholesterol] as the compound, how does the melting point read?
**A.** Its melting point is 148 °C.

**Q.** For `Clc1cccc(Cl)c1NC1=NCCN1` [Clonidine], which melting point is on record?
**A.** Its melting point is 130 °C.

**Q.** With `COC(=O)[C@@H]1C2CCC(C[C@@H]1OC(=O)c1ccccc1)N2C` (stereo partly drawn) [Cocaine] as the compound, how does the melting point read?
**A.** Its melting point is 195 °C.

**Q.** For `COc1ccc2c3c1O[C@H]1[C@@H](O)C=C[C@H]4[C@@H](C2)N(C)CC[C@@]341` [Codeine], which melting point is on record?
**A.** The melting point was 155 °C.

**Q.** Which melting point does the source give for `CCC(C)CCCC(=O)N[C@@H](CCN)C(=O)N[C@H](C(=O)N[C@@H](CCN)C(=O)N[C@H]1CCNC(=O)[C@H]([C@@H](C)O)NC(=O)[C@H](CCN)NC(=O)[C@H](CCN)NC(=O)[C@H](CC(C)C)NC(=O)[C@@H](CC(C)C)NC(=O)[C@H](CCN)NC1=O)[C@@H](C)O` (stereo partly drawn) [Colistin] here?
**A.** Its melting point is 210 °C.

**Q.** Which melting point does the source give for `C[C@]12CCC(=O)C=C1CC[C@@H]1[C@@H]2C(=O)C[C@@]2(C)[C@H]1CC[C@]2(O)C(=O)CO` [Cortisone] here?
**A.** The melting point was 225 °C.

**Q.** For `C1CCCCC1` [Cyclohexane], which melting point is on record?
**A.** Its melting point is 7 °C.

**Q.** With `O=C1CCCCC1` [Cyclohexanone] as the compound, how does the melting point read?
**A.** Its melting point is -32 °C and -31 °C.

**Q.** For `NC1(C(=O)O)CCCC1` [Cycloleucine], which melting point is on record?
**A.** Its melting point is 330 °C.

**Q.** Which melting point does the source give for `C1CCCC1` [Cyclopentane] here?
**A.** Its melting point is -94 °C.

**Q.** For `OC1CCCC1` [Cyclopentanol], which melting point is on record?
**A.** Its melting point is -19 °C.

**Q.** For `C1=CCCC1` [Cyclopentene], which melting point is on record?
**A.** The melting point was -135 °C.

**Q.** For `NC1CONC1=O` (stereo not drawn) [Cycloserine], which melting point is on record?
**A.** Its melting point is 147 °C.

**Q.** Which melting point does the source give for `N[C@H](Cc1ccccc1)C(=O)O` [D-Phenylalanine] here?
**A.** Its melting point is 274 °C.

**Q.** With `O=C[C@@H](O)[C@H](O)[C@H](O)CO` [D-arabinose] as the compound, how does the melting point read?
**A.** Its melting point is 156 °C.

**Q.** For `N=C(N)NCCC[C@@H](N)C(=O)O` [D-arginine], which melting point is on record?
**A.** The melting point was 235 °C.

**Q.** Which melting point does the source give for `O=C[C@H](O)[C@@H](O)[C@@H](O)[C@H](O)CO` [D-galactose] here?
**A.** Its melting point is 167 °C.

**Q.** Which melting point does the source give for `O=C[C@H](O)[C@@H](O)[C@H](O)[C@H](O)CO` [D-glucose, anhydrous] here?
**A.** Its melting point is 151 °C.

**Q.** Which melting point does the source give for `O[C@@H]1CO[C@H]2[C@@H]1OC[C@@H]2O` [D-isosorbide] here?
**A.** Its melting point is 60 °C.

**Q.** Which melting point does the source give for `O=C(O)C[C@@H](O)C(=O)O` [D-malic acid] here?
**A.** Its melting point is 102 °C.

**Q.** Which melting point does the source give for `OC[C@H]1OC(O)[C@@H](O)[C@@H](O)[C@@H]1O` (stereo partly drawn) [D-mannose] here?
**A.** The melting point was 130 °C.

**Q.** For `O=C[C@H](O)[C@H](O)[C@H](O)CO` [D-ribose], which melting point is on record?
**A.** Its melting point is 84 °C.

**Q.** Which melting point does the source give for `O=C(CO)[C@@H](O)[C@@H](O)[C@H](O)CO` [D-tagatose] here?
**A.** Its melting point is 135 °C.

**Q.** With `O=C(O)[C@@H](O)[C@H](O)C(=O)O` [D-tartaric acid] as the compound, how does the melting point read?
**A.** Its melting point is 168 °C.

**Q.** With `OC1OC[C@@H](O)[C@H](O)[C@H]1O` (stereo partly drawn) [D-xylose] as the compound, how does the melting point read?
**A.** Its melting point is 149 °C.

**Q.** For `Cc1c2oc3c(C)ccc(C(=O)NC4C(=O)NC(C(C)C)C(=O)N5CCCC5C(=O)N(C)CC(=O)N(C)C(C(C)C)C(=O)OC4C)c3nc-2c(C(=O)NC2C(=O)NC(C(C)C)C(=O)N3CCCC3C(=O)N(C)CC(=O)N(C)C(C(C)C)C(=O)OC2C)c(N)c1=O` (stereo not drawn) [Dactinomycin], which melting point is on record?
**A.** The melting point was 242 °C.

**Q.** Which melting point does the source give for `C=CCCCCCCCC` [Dec-1-ene] here?
**A.** Its melting point is -66 °C.

**Q.** Which melting point does the source give for `CCCCCCCCCC(=O)O` [Decanoic acid] here?
**A.** Its melting point is 31 °C.

**Q.** With `C[C@]12CC[C@H]3[C@@H](CCC4=CC(=O)CC[C@@]43C)[C@@H]1CC[C@@H]2C(=O)CO` [Deoxycorticosterone] as the compound, how does the melting point read?
**A.** The melting point was 142 °C.

**Q.** With `CC(C)(C)OOC(C)(C)C` [Di-tert-butyl peroxide] as the compound, how does the melting point read?
**A.** The melting point was -40 °C.

**Q.** With `CCOC(=O)/C=C/C(=O)OCC` [Diethyl (2E)-but-2-enedioate] as the compound, how does the melting point read?
**A.** The melting point was 1 °C.

**Q.** Which melting point does the source give for `CCOC(=O)C(=O)OCC` [Diethyl oxalate] here?
**A.** The melting point was -41 °C.

**Q.** For `C[C@H]1O[C@@H](O[C@H]2[C@@H](O)C[C@H](O[C@H]3[C@@H](O)C[C@H](O[C@H]4CC[C@@]5(C)[C@H](CC[C@@H]6[C@@H]5C[C@@H](O)[C@]5(C)C(C7=CC(=O)OC7)CC[C@]65O)C4)O[C@@H]3C)O[C@@H]2C)C[C@H](O)[C@@H]1O` (stereo partly drawn) [Digoxin], which melting point is on record?
**A.** Its melting point is 249 °C.

**Q.** With `COc1ccc2c3c1O[C@H]1[C@@H](O)CC[C@H]4[C@@H](C2)N(C)CC[C@@]341` [Dihydrocodeine] as the compound, how does the melting point read?
**A.** Its melting point is 112 °C.

**Q.** Which melting point does the source give for `COP(=O)(OC)C(O)C(Cl)(Cl)Cl` (stereo not drawn) [Dimethyl (2,2,2-trichloro-1-hydroxyethyl)phosphonate] here?
**A.** Its melting point is 83 °C.

**Q.** With `COC` [Dimethyl ether] as the compound, how does the melting point read?
**A.** Its melting point is -138 °C.

**Q.** With `COC(=O)CC(=O)OC` [Dimethyl malonate] as the compound, how does the melting point read?
**A.** The melting point was -62 °C.

**Q.** Which melting point does the source give for `COC(=O)CCCCCCCCC(=O)OC` [Dimethyl sebacate] here?
**A.** The melting point was 26.5 °C.

**Q.** With `CN(C)CC(=O)O` [Dimethylglycine] as the compound, how does the melting point read?
**A.** Its melting point is 186 °C.

**Q.** Which melting point does the source give for `Cc1ncc([N+](=O)[O-])n1C` [Dimetridazole] here?
**A.** The melting point was 140 °C.

**Q.** Which melting point does the source give for `OC(c1ccccc1)c1ccccc1` [Diphenylmethanol] here?
**A.** The melting point was 66 °C.

**Q.** Which melting point does the source give for `[SiH3][SiH3]` [Disilane] here?
**A.** Its melting point is -133 °C.

**Q.** Which melting point does the source give for `CN(C)C(=O)Nc1ccc(Cl)c(Cl)c1` [Diuron] here?
**A.** The melting point was 159 °C.

**Q.** With `CC(=O)O[C@@]12CO[C@@H]1C[C@H](O)[C@@]1(C)C(=O)[C@H](O)C3=C(C)[C@@H](OC(=O)[C@H](O)[C@@H](NC(=O)OC(C)(C)C)c4ccccc4)C[C@@](O)([C@@H](OC(=O)c4ccccc4)[C@H]21)C3(C)C` [Docetaxel] as the compound, how does the melting point read?
**A.** The melting point was 232 °C.

**Q.** With `O=C(O)CCCCCCCCCCC(=O)O` [Dodecanedioic acid] as the compound, how does the melting point read?
**A.** Its melting point is 129 °C.
